Data taken from US12527329B2, “Compositions and methods relating to insecticides” (priority 2019, dated 2026).
Like-named read-outs stand apart in the source and are kept apart here.

Experiments:
Aedes aegypti mosquitoes = format: in vivo
Method: This plant essential oil has been screened in combination with natural pyrethrins to assess the ability of this oil and these compositions to increase mortality and knockdown at 24-hr and 1-hr, respectively. […] As described herein, all compounds were dissolved and applied topically in ethanol or acetone.
An example of such synergism can be seen in FIG. 4. FIG. 4 is a graph showing synergism of insecticide (natural pyrethrins, NPs), piperonyl butoxide (PBO), and the combination thereof on mortality (24 hour) of Aedes aegypti mosquitoes. Mosquitoes were treated topically with 0.2 μL of different concentrations of insecticide+1% or 5% (w/v) piperonyl butoxide (PBO) in acetone. Mortality was recorded 24 hr after treatment.
Another example of such synergism is shown in FIG. 5, which is a graph showing antagonism of (natural pyrethrins, NPs), PBO, and the combination on knockdown (1 hour) of Aedes aegypti mosquitoes. Mosquitoes were treated with 0.2 μL different concentrations of insecticide+1% or 5% (w/v) PBO oil in acetone. Mortality was recorded 24 hr after exposure. FIG. 6 is an annotated version of FIG. 5 with arrows denoting statistically significant reduction in knockdown effect.
FIG. 7 is a graph showing synergism of (natural pyrethrins, NPs), fir needle oil, and the combination thereof on knockdown (1 hour) and mortality (24 hour) of Aedes aegypti mosquitoes. Mosquitoes were treated with 0.2 μL of different concentrations of insecticide+1% or 5% (w/v) fir needle oil in acetone. Mortality was recorded 24 hr after exposure.
(§1) Aedes aegypti mosquitoes (susceptible Orlando strain and pyrethroid resistant Puerto Rico strain) were reared using standard protocols and provided by the United States Department of Agriculture—Center of Medical, Agricultural, and Veterinary Entomology (Gainesville, FL). Adult mosquitoes were anesthetized on ice, and the females treated with 0.2 μL of ethanolic solution using a repeating micro-applicator (Hamilton Co., Reno, NV). Ten females were used per concentration and taken from at least three different emerged cohorts. Knockdown (defined as inability to fly or orient in the upright direction) was recorded at 1 hr or other time points post application (depending on the experiment), whereas mortality (defined as no movement—ataxia) was recorded at 24 hr. […] Synergism studies were performed using the maximal sublethal dose of the fir needle oil in combination with varying concentrations of insecticide to calculate the LD50 value of the insecticide in combination with the natural synergist. SAS 9.4 software was used to calculate the LD50 values using a PROC PROBIT model with Abbott's correction to account for any control mortality. Synergist ratios were calculated as: KD50 or LD50 of compound alone÷KD50 or LD50 of compound+Fir needle oil.

[1] = test system: pyrethroid-susceptible strain of Aedes aegypti (Orlando); format: in vivo; conditions: topical; for KD50: 1-hr; for LD50: 24-hr
Method: as §1

[2] = test system: pyrethroid-resistant Aedes aegypti strain (Puerto Rico); test: Topical application on the pyrethroid-resistant Puerto Rico strain: 24-hr LD50 and 1-hr KD50; format: in vivo; parameters: unit not given beside the values; conditions: alone or with FNO 5%
Method: as §1

[3] = test system: ethoxycoumarin de-ethylase (cytochrome P450 mono-oxygenase); test: Ethoxycoumarin de-ethylase activity assay on homogenates of topically treated mosquitoes; format: biochemical, Aedes aegypti; conditions: 0.2 μL of 5% (w/v) topically, 4 hr before homogenization; ANOVA with Tukey's posttest, P<0.05 (FIG. 9)
Method: Ethoxycoumarin de-ethylase activity was measured according the methods of Anderson and Zhu (2004) with minor modifications. In short, mosquitoes were treated with 0.2 μL of fir needle oil or delta-carene 5% w/v solution in ethanol and incubated for 4 hr prior to sacrificing treated insects. Approximately 100 insects were homogenized in 0.1 PBS solution, and homogenates centrifuged at 10,000×g for 20 minutes at 4° C. The resulting supernatant containing microsomes was then used as the enzyme preparation for the remainder of the assay. In each well, 20 μL of enzyme preparation was added to a final volume of 100 μL 0.1 PBS containing 250 μM reduced β-NADPH and 2 mM ethoxycoumarin. After adding the enzyme solution to the wells, plates were incubated at room temperature for 3 hr. After 3 hr incubation, 10 μL of 3.2 mM of oxidized glutathione was added to each well and 1 U of yeast glutathione reductase was added to each well. […] Fluorescence values were then read at 390/465 nm excitation/[…].

[4] = 1-hr knockdown, topical, insecticide with or without 1% fir needle oil, ng dose per mg insect body weight

Row | Structure (SMILES) | KD50 ([1]; alone or with FNO 5%) | LD50 ([1]; alone or with FNO 5%) | other results
1 | CC1(C)C(C=C(Cl)Cl)C1C(=O)OCc1cccc(Oc2ccccc2)c1 (racemic) [Permethrin, 3-phenoxybenzyl (1RS)-cis,trans-3-(2,2-dichlorovinyl)-2,2-dimethylcyclopropanecarboxylate] | 0.06 ng/mg | 0.09 ng/mg | KD50 (Aedes aegypti mosquitoes; in vivo): 0.06 ng/mg; LD50 (Aedes aegypti mosquitoes; in vivo): 0.09 ng/mg
2 | CNC(=N[N+](=O)[O-])NCc1cnc(Cl)s1 [Clothianidin, 1-(2-Chloro-1,3-thiazol-5-ylmethyl)-3-methyl-2-nitroguanidine] | 22 ng/mg | 4.5 ng/mg | KD50 (Aedes aegypti mosquitoes; [4]): 22 ng/mg; LD50 (Aedes aegypti mosquitoes; 24-hr lethal dose, topical, insecticide with or without 1% fir needle oil, ng dose per mg insect body weight): 4.5 ng/mg; KD50 ([1]; clothianidin alone or with 5% w/v FNO, delta-3-carene or bornyl acetate (Table 3)): 22; KD50 [2]: 9.15
3 | CC1(C)[C@H](C(=O)O[C@H](C#N)c2cccc(Oc3ccccc3)c2)[C@@H]1C=C(Br)Br [Deltamethrin, (S)-α-cyano-3-phenoxybenzyl (1R)-cis-3-(2,2-dibromovinyl)-2,2-dimethylcyclopropanecarboxylate] |  |  | KD50 (Aedes aegypti mosquitoes; [4]): 0.003 ng/mg
4 | N#Cc1nn(-c2c(Cl)cc(C(F)(F)F)cc2Cl)c(N)c1[S+]([O-])C(F)(F)F (stereo not shown) [Fipronil] | 10.7 ng/mg | 0.1 ng/mg | 
5 | O=[N+]([O-])N=C1NCCN1Cc1ccc(Cl)nc1 [Imidacloprid, 1-(6-chloro-3-pyridylmethyl)-N-nitroimidazolidin-2-ylideneamine] | 3.7 ng/mg | 1.1 ng/mg | KD50 [2]: 10.7
6 | CN1COCN(Cc2cnc(Cl)s2)C1=N[N+](=O)[O-] [Thiamethoxam, 3-((2-chloro-5-thiazolyl)methyl)-5-methyl-4-nitroiminotetrahydro-1,3,5-oxadiazine] | 17.2 ng/mg | 3.4 ng/mg | 
7 | CC1=CCC2C(C1)C2(C)C (stereo not shown) [delta-carene, delta-3-carene] |  |  | ethoxycoumarin de-ethylase (cytochrome P450 mono-oxygenase) activity versus vehicle-treated mosquitoes [3]: not increasing P450 activity
